Test results published in ChEMBL document CHEMBL2069221, “Hybrid molecules of carvacrol and benzoyl urea/thiourea with potential applications in agriculture and medicine” (Bioorg Med Chem Lett, 2012).
≈ marks a conversion by molar mass, not a printed value. Calls of active or inactive are those of the source. The calls are words filed in the database; no cut-off is given here.

How the values were obtained:
[1] = tested on: Fusarium oxysporum; assay: Antifungal activity against Fusarium oxysporum after 48 hrs by microbroth dilution method; format: functional
[2] = Toxicity in RBC assessed as induction of hemolysis; format: cell-based, Erythrocyte; conditions: red blood cells (RBC)
[3] = tested on: Candida albicans; assay: Antifungal activity against Candida albicans NCIM 3471 after 48 hrs by microbroth dilution method; format: functional
[4] = tested on: Cryptococcus neoformans; assay: Antifungal activity against Cryptococcus neoformans NCIM 3378 after 48 hrs by microbroth dilution method; format: functional
[5] = Toxicity in RBC assessed as induction of hemolysis at MIC; format: cell-based, Erythrocyte; conditions: red blood cells (RBC); read-out: Activity
[6] = tested on: Candida albicans; assay: Antifungal activity against Candida albicans after 48 hrs by microbroth dilution method; format: functional
[7] = Antifungal activity against Pichia membranifaciens after 48 hrs by microbroth dilution method; format: functional
[8] = tested on: Drechslera; assay: Antifungal activity against Dreschlera oryzae after 48 hrs by microbroth dilution method; format: functional
[9] = tested on: Cryptococcus neoformans; assay: Antifungal activity against Cryptococcus neoformans NCIM 3541 after 48 hrs by microbroth dilution method; format: functional
[10] = tested on: Nakaseomyces glabratus; assay: Antifungal activity against Candida glabrata NCIM 3237 after 48 hrs by microbroth dilution method; format: functional
[11] = tested on: Candida albicans; assay: Antifungal activity against Candida albicans NCIM 3557 after 48 hrs by microbroth dilution method; format: functional
[12] = tested on: Pyricularia grisea; assay: Antifungal activity against Magnaporthe grisea after 48 hrs by microbroth dilution method; format: functional
[13] = tested on: Debaryomyces hansenii; assay: Antifungal activity against Debaryomyces hansenii after 48 hrs by microbroth dilution method; format: functional
[14] = tested on: Cryptococcus neoformans; assay: Antifungal activity against Cryptococcus neoformans after 48 hrs by microbroth dilution method; format: functional
[15] = tested on: Cryptococcus neoformans; assay: Antifungal activity against Cryptococcus neoformans NCIM 3542 after 48 hrs by microbroth dilution method; format: functional
[16] = tested on: Dysdercus koenigii; assay: Insecticidal activity against 5th instar nymph of Dysdercus koenigii assessed as mortality per nymph; format: functional
[17] = tested on: Dysdercus koenigii; assay: Insecticidal activity against 5th instar nymph of Dysdercus koenigii assessed as deformed legs at 20 and 50 ug/nymph; format: functional
[18] = tested on: Dysdercus koenigii; assay: Insecticidal activity against 5th instar nymph of Dysdercus koenigii assessed as crumpled wings at 20 and 50 ug/nymph; format: functional
[19] = tested on: Dysdercus koenigii; assay: Insecticidal activity against 5th instar nymph of Dysdercus koenigii assessed as smaller body size at 20 and 50 ug/nymph; format: functional
[20] = Toxicity in RBC assessed as induction of hemolysis at 1000 ug/ml; format: cell-based, Erythrocyte; conditions: red blood cells (RBC); read-out: Activity

Cc1cc(NC(=S)NC(=O)c2c(F)cccc2F)c(C(C)C)cc1O
MIC [1]: > 512 µg/mL | HC50 [2]: > 1000 µg/mL | GI [3]: >512 µg/mL | GI [4]: 128 µg/mL | hemolysis [5]: < 2% | GI [6]: 64 µg/mL | MIC [7]: > 512 µg/mL | MIC [8]: 256 µg/mL (≈ 702 µM) | GI [9]: 32 µg/mL | GI [10]: 64 µg/mL | GI [11]: 256 µg/mL | MIC [12]: > 512 µg/mL | MIC [13]: 128 µg/mL (≈ 351 µM) | GI [14]: 512 µg/mL | GI [15]: 64 µg/mL | LD50 [16]: 11.3 µg

Cc1cc(NC(=O)NC(=O)c2c(F)cccc2F)c(C(C)C)cc1O
MIC [1]: > 512 µg/mL | HC50 [2]: > 1000 µg/mL | GI [3]: 32 µg/mL | GI [4]: 16 µg/mL | hemolysis [5]: < 2% | GI [6]: 16 µg/mL | MIC [7]: > 512 µg/mL | MIC [8]: > 512 µg/mL | GI [9]: <4 µg/mL | GI [10]: 16 µg/mL | GI [11]: >512 µg/mL | MIC [12]: > 512 µg/mL | MIC [13]: > 512 µg/mL | Activity [17]: Active | Activity [18]: Active | Activity [19]: Active | GI [14]: >512 µg/mL | GI [15]: 16 µg/mL | LD50 [16]: 9.5 µg

Cc1cc(NC(=S)NC(=O)c2ccccc2)c(C(C)C)cc1O
MIC [1]: > 512 µg/mL | HC50 [2]: > 1000 µg/mL | GI [3]: >512 µg/mL | GI [4]: 128 µg/mL | hemolysis [5]: < 2% | GI [6]: 32 µg/mL | MIC [7]: 512 µg/mL (≈ 1560 µM) | MIC [8]: > 512 µg/mL | GI [9]: 16 µg/mL | GI [10]: 32 µg/mL | GI [11]: 128 µg/mL | MIC [12]: > 512 µg/mL | MIC [13]: > 512 µg/mL | GI [14]: 64 µg/mL | GI [15]: 32 µg/mL | LD50 [16]: 23.6 µg

Cc1cc(NC(=S)NC(=O)c2ccccc2F)c(C(C)C)cc1O
MIC [1]: 128 µg/mL (≈ 369 µM) | HC50 [2]: > 1000 µg/mL | GI [3]: >512 µg/mL | GI [4]: 512 µg/mL | hemolysis [5]: < 2% | GI [6]: 128 µg/mL | MIC [7]: > 512 µg/mL | MIC [8]: > 512 µg/mL | GI [9]: 64 µg/mL | GI [10]: 128 µg/mL | GI [11]: 128 µg/mL | MIC [12]: 256 µg/mL (≈ 739 µM) | MIC [13]: 256 µg/mL (≈ 739 µM) | GI [14]: 32 µg/mL | GI [15]: 128 µg/mL | LD50 [16]: 12.6 µg

Cc1cc(NC(=O)NC(=O)c2ccc(Cl)cc2)c(C(C)C)cc1O
MIC [1]: 256 µg/mL (≈ 738 µM) | HC50 [2]: > 1000 µg/mL | GI [3]: >512 µg/mL | GI [4]: 32 µg/mL | hemolysis [5]: < 2% | GI [6]: 32 µg/mL | MIC [7]: 256 µg/mL (≈ 738 µM) | MIC [8]: 128 µg/mL (≈ 369 µM) | GI [9]: 32 µg/mL | GI [10]: 32 µg/mL | GI [11]: 64 µg/mL | MIC [12]: 512 µg/mL (≈ 1480 µM) | MIC [13]: 128 µg/mL (≈ 369 µM) | GI [14]: 64 µg/mL | GI [15]: 32 µg/mL | LD50 [16]: 18 µg

Cc1cc(NC(=S)NC(=O)c2ccccc2Cl)c(C(C)C)cc1O
MIC [1]: > 512 µg/mL | HC50 [2]: > 1000 µg/mL | GI [3]: >512 µg/mL | GI [4]: >512 µg/mL | hemolysis [5]: < 2% | GI [6]: 64 µg/mL | MIC [7]: 512 µg/mL (≈ 1410 µM) | MIC [8]: > 512 µg/mL | GI [9]: 32 µg/mL | GI [10]: 64 µg/mL | GI [11]: 64 µg/mL | MIC [12]: > 512 µg/mL | MIC [13]: > 512 µg/mL | GI [14]: 128 µg/mL | GI [15]: 64 µg/mL | LD50 [16]: 13 µg

Cc1cc(NC(=S)NC(=O)c2ccc(F)cc2)c(C(C)C)cc1O
MIC [1]: 128 µg/mL (≈ 369 µM) | HC50 [2]: > 1000 µg/mL | GI [3]: >512 µg/mL | GI [4]: 128 µg/mL | GI [6]: 64 µg/mL | MIC [7]: 512 µg/mL (≈ 1480 µM) | MIC [8]: 256 µg/mL (≈ 739 µM) | GI [9]: 32 µg/mL | GI [10]: 64 µg/mL | GI [11]: 64 µg/mL | hemolysis at 1000 ug/ml [20]: 17% | MIC [12]: 256 µg/mL (≈ 739 µM) | MIC [13]: 256 µg/mL (≈ 739 µM) | GI [14]: 16 µg/mL | GI [15]: 64 µg/mL | LD50 [16]: 12.6 µg

O=C(NC(=O)c1c(F)cccc1F)Nc1cc(Cl)c(OC(F)(F)C(F)C(F)(F)F)cc1Cl (stereo not given) [LUFENURON]
MIC [1]: > 512 µg/mL | HC50 [2]: > 1000 µg/mL | GI [3]: >512 µg/mL | GI [4]: >512 µg/mL | GI [6]: >512 µg/mL | MIC [7]: > 512 µg/mL | MIC [8]: > 512 µg/mL | GI [9]: >512 µg/mL | GI [10]: >512 µg/mL | GI [11]: >512 µg/mL | MIC [12]: > 512 µg/mL | MIC [13]: > 512 µg/mL | GI [14]: >512 µg/mL | GI [15]: >512 µg/mL | LD50 [16]: 9 µg
